The source of these data is ChEMBL document CHEMBL1201862, “PubChem BioAssay data set” (2004).

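Following 48 hours of exposure in 96-well plates, responses at five concentrations were used to interpolate endpoints linearly. GI50 = concentration required for 50% inhibition of growth.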 Active and inactive are the calls of the source. No stated cut-off is given here; in the data, active = GI50 up to about 1.1 µM and inactive = higher. Bounds are passed on as bounds.

Common to all, as to test: DTP human tumour cell line panel, 48 h
For experiment [1], the system named is OVCAR-8.
Experiment [2] concerns NCI-H522.
Experiment [3] concerns SF-295.
The subject of experiment [4] is NCI-H460.
Experiment [5] relates to BT-549.
Experiment [6] deals with COLO 205.
Experiment [7] relates to HCT-116.
Experiment [8] deals with NCI-H23.
In experiment [9] the test system is MDA-N.
The test system of experiment [10] is KM12.
Experiment [11] deals with HCT-15.
The test system of experiment [12] is MDA-MB-435.
Experiment [13] has as its system SF-268.
The subject of experiment [14] is SK-MEL-28.
Experiment [15] has as its system 786-0.
Experiment [16] has as its system MOLT-4.
For experiment [17], the system named is LOX IMVI.
Experiment [18] deals with HT-29.
The test system of experiment [19] is A549.
Experiment [20] concerns T47D.

What is called GI50 is the concentration that inhibits growth by half. In the case of `Cc1c(NC(=O)Nc2c(Cl)cccc2Cl)c(=O)n(-c2ccccc2)n1C`, the GI50 in experiment [1], in experiment [2], in [3], in experiment [4], in experiment [5] and in experiment [6] was > 100 µM (inactive) in each case. In addition, the GI50 was > 100 µM (inactive) in experiment [7]; > 100 µM (inactive) in experiment [8]; > 100 µM (inactive) in experiment [9]; > 100 µM (inactive) in experiment [10]; above 100 µM in [11]; > 100 µM (inactive) in experiment [12]. In addition, the GI50 in experiment [13], in experiment [14], in experiment [15], in experiment [16], in experiment [17] and in experiment [18] was > 100 µM (inactive) throughout. The GI50 in experiment [19] and in experiment [20] was > 100 µM (inactive) in each case.
As to `COc1cc(I)c2c3c1OC1C34CCN(C)C(C2)C4=CC(I)C1(OC)OC` (stereo not given), the GI50 was 20.1 µM (inactive) in [1]; 21.2 µM (inactive) in experiment [2]; 46.2 µM (inactive) in experiment [3]; 19.1 µM (inactive) in [4]; 23.9 µM (inactive) in [5]; 19.4 µM (inactive) in [6]. The GI50 in experiment [7] was 23.4 µM (inactive); in experiment [8], 24.5 µM (inactive); in experiment [9], 19.9 µM (inactive); in [10], 17.5 µM (inactive); in [11], 25.5 µM; in experiment [12], 13.2 µM (inactive). For the same compound, the GI50 is 25.6 µM (inactive) in experiment [13]; 18.2 µM (inactive) in experiment [14]; 20.3 µM (inactive) in [15]; 16.2 µM (inactive) in experiment [16]; 19.6 µM (inactive) in experiment [17]; 26.5 µM (inactive) in experiment [18]. Moreover, the GI50 in [19] is 29.6 µM (inactive); in [20] it was 14.6 µM (inactive).
Consider `CC(=O)c1c2c(cc3c1CC1(Cc4cc5c(cc4C1=O)CCC5)C3)CCC2` (stereo not given), for which the GI50 was 71.9 µM (inactive) in [1]; 22.2 µM (inactive) in experiment [2]; 42.5 µM (inactive) in [3]; 42.6 µM (inactive) in [4]; 27 µM (inactive) in experiment [5]; 64.6 µM (inactive) in experiment [6]. For the same compound, the GI50 in experiment [7] was 9.12 µM (inactive); in experiment [8], 30.9 µM (inactive); in experiment [9], > 87.1 µM (inactive); in experiment [10], 53.5 µM (inactive); in experiment [11], 63 µM; in experiment [12], 48.9 µM (inactive). The GI50 in [13] is > 81.5 µM (inactive); in [14] it was > 100 µM (inactive); in experiment [15], > 54.5 µM (inactive); in [16], 4.95 µM (inactive); in experiment [17] it was 38.3 µM (inactive); in [18], 54.2 µM (inactive). Besides, the GI50 in [19] was 42.2 µM (inactive); in [20], 8.91 µM (inactive).
Regarding `O=P1(N(CCCl)CCCl)Oc2ccc(Cl)cc2C(C(Cl)(Cl)Cl)c2cc(Cl)ccc2O1` (stereo not given), the GI50 in [1] was 25.5 µM (inactive); in [2], 8.59 µM (inactive); in [3] it was 3.68 µM (inactive); in [4], 8.28 µM (inactive); in experiment [5] it was 29.8 µM (inactive); in [6], 12.9 µM (inactive). Also, the GI50 in [7] is 4.55 µM (inactive); in [8], 12.8 µM (inactive); in experiment [9], 16.2 µM (inactive); in experiment [10] it was 13.1 µM (inactive); in [11], 9.57 µM; in experiment [12] it was 18.5 µM (inactive). The GI50 in experiment [13] is 28.2 µM (inactive); in experiment [14] it was 35.2 µM (inactive); in experiment [15] it was 12.4 µM (inactive); in [16], 3.24 µM (inactive); in [17], 15.2 µM (inactive); in [18], 5.48 µM (inactive). Besides, the GI50 in [19] was 5.4 µM (inactive); in [20], 20 µM (inactive).
As for `CCn1c2ccccc2c2cc(/N=N\c3ccc(C#N)cc3)ccc21`, the GI50 was 39.3 µM (inactive) in experiment [1]; 38.9 µM (inactive) in [2]; 32.1 µM (inactive) in experiment [3]; 64.7 µM (inactive) in experiment [4]; 20.7 µM (inactive) in [5]; 74.5 µM (inactive) in experiment [6]. The GI50 in experiment [7] was 50.4 µM (inactive); in [8], 23.5 µM (inactive); in [9] it was 69.5 µM (inactive); in [10], 83.6 µM (inactive); in [11] it was above 100 µM; in [12], > 100 µM (inactive). The GI50 in experiment [13] is 54.7 µM (inactive); in experiment [14], > 100 µM (inactive); in experiment [15] it was 29 µM (inactive); in [16], > 100 µM (inactive); in experiment [17], 23.7 µM (inactive); in experiment [18], 26.5 µM (inactive). The GI50 in experiment [19] was 26.9 µM (inactive); in experiment [20], 50.6 µM (inactive).
In the case of `CC(C)OP(=O)(c1ccccc1)c1ccc2c(c1)OCCOCCOCCOCCO2` (stereo not given), the GI50 in experiment [1] was > 100 µM (inactive); in [2], 84.7 µM (inactive); in experiment [3] it was > 100 µM (inactive); in experiment [4], > 100 µM (inactive); in experiment [5] it was > 100 µM (inactive); in experiment [6], > 100 µM (inactive). The GI50 in [7] is > 100 µM (inactive); in experiment [8], > 100 µM (inactive); in [9] it was > 100 µM (inactive); in experiment [10] it was > 100 µM (inactive); in [11], above 100 µM; in [12], > 100 µM (inactive). Also, the GI50 in experiment [13], in [14], in experiment [15], in experiment [16], in [17] and in experiment [18] was > 100 µM (inactive) in each case. Besides, the GI50 in experiment [19] and in [20] was > 100 µM (inactive) throughout.
In the case of `Nc1ccc(-c2nc3cc(F)ccc3s2)cc1`, the GI50 is > 95.9 µM (inactive) in experiment [1]; 53.5 µM (inactive) in experiment [2]; 25.5 µM (inactive) in [3]; 7.98 µM (inactive) in experiment [4]; > 100 µM (inactive) in [5]; 61 µM (inactive) in experiment [6]. The GI50 in experiment [7] was > 69.8 µM (inactive); in experiment [8] it was 1.43 µM (inactive); in experiment [9], > 100 µM (inactive); in experiment [10], > 68.4 µM (inactive); in experiment [11], 17.6 µM; in experiment [12], > 100 µM (inactive). Further, the GI50 in [13] was 31 µM (inactive); in experiment [14], > 100 µM (inactive); in experiment [15], > 85.3 µM (inactive); in experiment [16], > 82.2 µM (inactive); in experiment [17], 45.1 µM (inactive); in [18], > 91 µM (inactive). Further, the GI50 is 87.7 µM (inactive) in [19] and 0.424 µM (active) in experiment [20].
